Measurements from ChEMBL document CHEMBL4052645, “Discovery of potent and efficacious pyrrolopyridazines as dual JAK1/3 inhibitors” (Bioorg Med Chem Lett, 2017).

Assays:
[1] = molecular target: Serine/threonine-protein kinase N2 (Homo sapiens) (UniProt Q16513); test: Inhibition of human PKN2 (E634 to C948 residues) expressed in bacterial expression system assessed as residual activity at 50 nM by KINOMEscan assay relative to control
[2] = molecular target: Serine/threonine-protein kinase SIK2 (Homo sapiens) (UniProt Q9H0K1); test: Inhibition of wild-type human full length QIK (M1 to N926 residues) expressed in bacterial expression system assessed as residual activity at 50 nM by Kinomescan method relative to control
[3] = molecular target: Mitogen-activated protein kinase kinase kinase 7 (Homo sapiens) (UniProt O43318); test: Inhibition of wild-type human partial length TAK1 (M1 to Q303 residues) expressed in mammalian expression system assessed as residual activity at 50 nM by Kinomescan method relative to control
[4] = molecular target: Serine/threonine-protein kinase tousled-like 1 (Homo sapiens) (UniProt Q9UKI8); test: Inhibition of wild-type human partial length TLK1 (K447 to A754 residues) expressed in bacterial expression system assessed as residual activity at 50 nM by Kinomescan method relative to control
[5] = molecular target: Serine/threonine-protein kinase DCLK1 (Homo sapiens) (UniProt O15075); test: Inhibition of wild-type human partial length DCAMKL1 (L270 to A662 residues) expressed in mammalian expression system assessed as residual activity at 50 nM by Kinomescan method relative to control
[6] = molecular target: Phosphorylase b kinase gamma catalytic chain, liver/testis isoform (Homo sapiens) (UniProt P15735); test: Inhibition of wild-type human partial length PHKG2 (M1 to W300 residues) expressed in bacterial expression system assessed as residual activity at 50 nM by Kinomescan method relative to control
[7] = molecular target: Serine/threonine-protein kinase SIK3 (Homo sapiens) (UniProt Q9Y2K2); test: Inhibition of wild-type human partial length QSK (A90 to L395 residues) expressed in mammalian expression system assessed as residual activity at 50 nM by Kinomescan method relative to control
[8] = molecular target: Death-associated protein kinase 2 (Homo sapiens) (UniProt Q9UIK4); test: Inhibition of wild-type human full length DAPK2 (M1 to S370 residues) expressed in bacterial expression system assessed as residual activity at 50 nM by Kinomescan method relative to control
[9] = molecular target: Serine/threonine-protein kinase Nek2 (Homo sapiens) (UniProt P51955); test: Inhibition of wild-type human partial length NEK2 (M1 to K309 residues) expressed in bacterial expression system assessed as residual activity at 50 nM by Kinomescan method relative to control
[10] = molecular target: Serine/threonine-protein kinase BRSK1 (Homo sapiens) (UniProt Q8TDC3); test: Inhibition of wild-type human partial length BRSK1 (M1 to E754 residues) expressed in bacterial expression system assessed as residual activity at 50 nM by Kinomescan method relative to control
[11] = molecular target: SRSF protein kinase 1 (Homo sapiens) (UniProt Q96SB4); test: Inhibition of wild-type human full length SRPK1 (M1 to S655 residues) expressed in bacterial expression system assessed as residual activity at 50 nM by Kinomescan method relative to control
[12] = test system: Phosphatidylinositol 4,5-bisphosphate 3-kinase catalytic subunit alpha isoform (Homo sapiens), P42336 [Q546K]; test: Inhibition of human partial length PIK3CA Q546K mutant (R108 to N1068 residues) expressed in mammalian expression system assessed as residual activity at 50 nM by Kinomescan method relative to control
[13] = molecular target: Angiopoietin-1 receptor (Homo sapiens) (UniProt Q02763); test: Inhibition of wild-type human partial length TIE2 (N804 to T1112 residues) expressed in bacterial expression system assessed as residual activity at 50 nM by Kinomescan method relative to control
[14] = molecular target: Tyrosine-protein kinase Yes (Homo sapiens) (UniProt P07947); test: Inhibition of wild-type human partial length YES (T257 to L543 residues) expressed in bacterial expression system assessed as residual activity at 50 nM by Kinomescan method relative to control
[15] = test system: Phosphatidylinositol 4,5-bisphosphate 3-kinase catalytic subunit alpha isoform (Homo sapiens), P42336 [E545A]; test: Inhibition of human partial length PIK3CA E545A mutant (R108 to N1068 residues) expressed in mammalian expression system assessed as residual activity at 50 nM by Kinomescan method relative to control
[16] = molecular target: Serine/threonine-protein kinase TBK1 (Homo sapiens) (UniProt Q9UHD2); test: Inhibition of wild-type human full length TBK1 (M1 to L729 residues) expressed in mammalian expression system assessed as residual activity at 50 nM by Kinomescan method relative to control
[17] = molecular target: Serine/threonine-protein kinase LATS1 (Homo sapiens) (UniProt O95835); test: Inhibition of wild-type human partial length LATS1 (Q678 to V1130 residues) expressed in bacterial expression system assessed as residual activity at 50 nM by Kinomescan method relative to control
[18] = molecular target: Casein kinase I isoform epsilon (Homo sapiens) (UniProt P49674); test: Inhibition of wild-type human full length CK1E (M1 to K416 residues) expressed in bacterial expression system assessed as residual activity at 50 nM by Kinomescan method relative to control
[19] = molecular target: LIM domain kinase 2 (Homo sapiens) (UniProt P53671); test: Inhibition of wild-type human full length LIMK2 (M1 to P638 residues) expressed in bacterial expression system assessed as residual activity at 50 nM by Kinomescan method relative to control
[20] = molecular target: Mitogen-activated protein kinase kinase kinase 13 (Homo sapiens) (UniProt O43283); test: Inhibition of wild-type human full length LZK (M1 to W966 residues) expressed in mammalian expression system assessed as residual activity at 50 nM by Kinomescan method relative to control
[21] = molecular target: Activin receptor type-1 (Homo sapiens) (UniProt Q04771); test: Inhibition of wild-type human ALK2 (C188 to C509 residues) expressed in bacterial expression system assessed as residual activity at 50 nM by Kinomescan method relative to control
[22] = molecular target: Casein kinase I isoform gamma-3 (Homo sapiens) (UniProt Q9Y6M4); test: Inhibition of wild-type human full length CK1G3 (M1 to K447 residues) expressed in bacterial expression system assessed as residual activity at 50 nM by Kinomescan method relative to control
[23] = molecular target: Serine/threonine-protein kinase 38-like (Homo sapiens) (UniProt Q9Y2H1); test: Inhibition of wild-type human partial length NDR2 (N34 to E447 residues) expressed in bacterial expression system assessed as residual activity at 50 nM by Kinomescan method relative to control
[24] = test system: Phosphatidylinositol 4,5-bisphosphate 3-kinase catalytic subunit alpha isoform (Homo sapiens), P42336 [E542K]; test: Inhibition of human partial length PI3KCA E542K mutant (R108 to N1068 residues) expressed in mammalian expression system assessed as residual activity at 50 nM by Kinomescan method relative to control
[25] = molecular target: Dual specificity testis-specific protein kinase 1 (Homo sapiens) (UniProt Q15569); test: Inhibition of wild-type human full length TESK1 (R37 to S626 residues) expressed in bacterial expression system assessed as residual activity at 50 nM by Kinomescan method relative to control
Dual specificity testis-specific protein kinase 1 (Homo sapiens), sequence (Q15569 whole entry, looked up, the tested form may be a part): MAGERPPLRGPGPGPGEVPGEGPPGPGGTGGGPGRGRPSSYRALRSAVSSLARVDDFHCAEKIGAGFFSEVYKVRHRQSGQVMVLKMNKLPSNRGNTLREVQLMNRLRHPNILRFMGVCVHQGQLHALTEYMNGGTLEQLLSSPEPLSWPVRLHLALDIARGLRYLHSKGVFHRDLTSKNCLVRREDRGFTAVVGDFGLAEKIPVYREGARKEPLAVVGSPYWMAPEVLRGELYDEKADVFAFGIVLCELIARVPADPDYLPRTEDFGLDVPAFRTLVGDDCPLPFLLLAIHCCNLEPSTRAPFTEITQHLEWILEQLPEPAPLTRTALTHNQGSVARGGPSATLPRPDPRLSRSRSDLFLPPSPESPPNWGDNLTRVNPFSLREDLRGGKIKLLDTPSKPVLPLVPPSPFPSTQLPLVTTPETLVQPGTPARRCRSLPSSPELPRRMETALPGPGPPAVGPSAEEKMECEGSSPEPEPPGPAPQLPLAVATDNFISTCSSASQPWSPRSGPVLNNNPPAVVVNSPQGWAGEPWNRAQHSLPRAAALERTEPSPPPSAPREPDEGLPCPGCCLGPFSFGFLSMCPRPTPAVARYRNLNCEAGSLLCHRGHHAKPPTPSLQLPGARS

Casein kinase I isoform epsilon (Homo sapiens), sequence (P49674 whole entry, looked up, the tested form may be a part, canonical isoform): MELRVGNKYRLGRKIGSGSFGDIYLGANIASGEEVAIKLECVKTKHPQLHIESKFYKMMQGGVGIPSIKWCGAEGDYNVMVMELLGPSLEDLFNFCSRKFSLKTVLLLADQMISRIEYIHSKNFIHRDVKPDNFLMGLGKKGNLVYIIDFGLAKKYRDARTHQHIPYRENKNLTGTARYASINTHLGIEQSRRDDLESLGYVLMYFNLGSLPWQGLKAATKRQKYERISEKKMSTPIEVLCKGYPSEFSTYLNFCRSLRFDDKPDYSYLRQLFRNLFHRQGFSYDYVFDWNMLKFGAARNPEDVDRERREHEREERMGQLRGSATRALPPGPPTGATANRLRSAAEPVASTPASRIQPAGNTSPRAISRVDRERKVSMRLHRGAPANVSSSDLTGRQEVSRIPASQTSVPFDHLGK
Serine/threonine-protein kinase LATS1 (Homo sapiens), sequence (O95835 whole entry, the tested form may be a part, canonical isoform): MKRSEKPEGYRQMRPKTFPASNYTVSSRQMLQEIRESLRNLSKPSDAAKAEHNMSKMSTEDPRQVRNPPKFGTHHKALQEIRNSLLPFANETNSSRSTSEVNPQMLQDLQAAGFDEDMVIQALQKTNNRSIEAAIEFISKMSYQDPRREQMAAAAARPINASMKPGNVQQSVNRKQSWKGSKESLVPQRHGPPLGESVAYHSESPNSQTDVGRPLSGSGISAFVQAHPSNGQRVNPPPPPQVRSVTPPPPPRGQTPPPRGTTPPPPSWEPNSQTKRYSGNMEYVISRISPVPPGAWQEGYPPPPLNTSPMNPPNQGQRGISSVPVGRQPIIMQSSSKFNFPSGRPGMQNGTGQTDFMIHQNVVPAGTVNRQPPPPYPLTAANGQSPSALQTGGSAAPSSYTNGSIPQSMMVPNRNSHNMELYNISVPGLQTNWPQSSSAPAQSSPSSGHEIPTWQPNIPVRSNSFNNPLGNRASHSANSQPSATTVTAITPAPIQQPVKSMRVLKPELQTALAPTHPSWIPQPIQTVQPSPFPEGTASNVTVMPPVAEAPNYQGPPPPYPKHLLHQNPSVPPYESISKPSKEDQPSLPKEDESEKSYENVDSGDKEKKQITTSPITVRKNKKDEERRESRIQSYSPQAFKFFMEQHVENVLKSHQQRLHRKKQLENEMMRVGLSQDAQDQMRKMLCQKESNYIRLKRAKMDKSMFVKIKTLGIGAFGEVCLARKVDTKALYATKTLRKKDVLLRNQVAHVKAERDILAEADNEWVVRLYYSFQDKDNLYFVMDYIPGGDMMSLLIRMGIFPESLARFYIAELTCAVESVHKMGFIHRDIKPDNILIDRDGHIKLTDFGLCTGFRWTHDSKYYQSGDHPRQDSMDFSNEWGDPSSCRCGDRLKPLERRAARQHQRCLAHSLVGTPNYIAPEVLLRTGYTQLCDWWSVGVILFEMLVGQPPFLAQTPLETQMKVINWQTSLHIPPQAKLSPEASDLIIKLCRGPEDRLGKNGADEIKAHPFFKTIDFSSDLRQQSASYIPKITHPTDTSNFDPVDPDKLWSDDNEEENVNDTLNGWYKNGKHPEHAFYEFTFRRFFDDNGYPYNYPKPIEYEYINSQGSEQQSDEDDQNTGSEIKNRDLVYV
Serine/threonine-protein kinase SIK2 (Homo sapiens), sequence (Q9H0K1 whole entry, looked up, the tested form may be a part): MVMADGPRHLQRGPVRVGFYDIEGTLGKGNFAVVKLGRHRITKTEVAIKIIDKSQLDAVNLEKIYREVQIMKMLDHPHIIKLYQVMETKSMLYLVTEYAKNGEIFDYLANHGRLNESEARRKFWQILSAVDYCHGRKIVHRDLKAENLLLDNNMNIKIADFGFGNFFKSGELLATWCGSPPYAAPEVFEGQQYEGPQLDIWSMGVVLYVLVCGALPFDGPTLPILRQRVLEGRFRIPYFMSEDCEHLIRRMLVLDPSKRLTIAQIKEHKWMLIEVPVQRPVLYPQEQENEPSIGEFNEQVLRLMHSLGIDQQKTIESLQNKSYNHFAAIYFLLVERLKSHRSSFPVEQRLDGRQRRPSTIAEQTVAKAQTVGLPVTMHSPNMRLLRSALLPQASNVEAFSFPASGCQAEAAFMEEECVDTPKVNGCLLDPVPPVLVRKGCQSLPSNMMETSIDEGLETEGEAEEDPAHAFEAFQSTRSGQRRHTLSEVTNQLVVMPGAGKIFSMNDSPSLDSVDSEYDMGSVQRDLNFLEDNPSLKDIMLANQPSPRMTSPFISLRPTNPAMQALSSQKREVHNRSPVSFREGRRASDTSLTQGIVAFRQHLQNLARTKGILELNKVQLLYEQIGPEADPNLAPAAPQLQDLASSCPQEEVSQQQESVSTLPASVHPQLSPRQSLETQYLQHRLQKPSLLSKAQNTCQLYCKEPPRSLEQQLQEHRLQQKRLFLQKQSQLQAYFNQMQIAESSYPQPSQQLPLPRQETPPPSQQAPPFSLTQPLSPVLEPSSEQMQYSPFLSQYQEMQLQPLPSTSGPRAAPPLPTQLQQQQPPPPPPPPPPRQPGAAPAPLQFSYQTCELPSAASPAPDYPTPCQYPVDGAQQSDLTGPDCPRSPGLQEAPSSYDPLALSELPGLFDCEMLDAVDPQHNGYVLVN
Serine/threonine-protein kinase TBK1 (Homo sapiens), sequence (Q9UHD2 whole entry, the tested form may be a part): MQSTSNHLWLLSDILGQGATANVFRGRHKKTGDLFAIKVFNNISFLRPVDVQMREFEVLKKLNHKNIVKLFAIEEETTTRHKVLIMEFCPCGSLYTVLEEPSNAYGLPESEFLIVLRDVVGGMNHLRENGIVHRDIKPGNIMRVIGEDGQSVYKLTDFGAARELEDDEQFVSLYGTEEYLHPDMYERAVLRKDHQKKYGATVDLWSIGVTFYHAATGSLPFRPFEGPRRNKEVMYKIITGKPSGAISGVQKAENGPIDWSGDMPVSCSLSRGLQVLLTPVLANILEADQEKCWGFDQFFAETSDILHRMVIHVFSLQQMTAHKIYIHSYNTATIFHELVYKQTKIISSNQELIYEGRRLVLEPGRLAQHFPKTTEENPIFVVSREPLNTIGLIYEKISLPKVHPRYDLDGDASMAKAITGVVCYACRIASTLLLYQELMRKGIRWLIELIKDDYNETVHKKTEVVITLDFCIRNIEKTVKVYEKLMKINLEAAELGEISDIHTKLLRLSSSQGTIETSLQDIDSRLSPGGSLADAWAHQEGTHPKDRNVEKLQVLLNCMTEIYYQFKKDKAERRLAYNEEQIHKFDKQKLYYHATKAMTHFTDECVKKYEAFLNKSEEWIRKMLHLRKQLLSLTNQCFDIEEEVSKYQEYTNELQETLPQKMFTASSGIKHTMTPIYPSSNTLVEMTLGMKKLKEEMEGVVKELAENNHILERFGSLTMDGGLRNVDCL
Serine/threonine-protein kinase Nek2 (Homo sapiens), sequence (P51955 whole entry, the tested form may be a part): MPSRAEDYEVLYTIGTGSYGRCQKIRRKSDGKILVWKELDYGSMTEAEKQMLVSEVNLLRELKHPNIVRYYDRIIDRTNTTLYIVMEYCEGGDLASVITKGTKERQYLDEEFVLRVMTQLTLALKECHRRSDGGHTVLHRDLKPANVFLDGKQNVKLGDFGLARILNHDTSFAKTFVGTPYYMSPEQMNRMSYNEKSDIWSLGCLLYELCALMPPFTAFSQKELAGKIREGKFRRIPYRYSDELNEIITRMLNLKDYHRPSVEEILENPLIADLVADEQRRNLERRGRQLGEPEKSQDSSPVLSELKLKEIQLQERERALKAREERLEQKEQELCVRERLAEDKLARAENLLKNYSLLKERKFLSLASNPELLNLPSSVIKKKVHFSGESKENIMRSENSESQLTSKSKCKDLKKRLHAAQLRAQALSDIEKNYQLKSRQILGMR
Casein kinase I isoform gamma-3 (Homo sapiens), sequence (Q9Y6M4 whole entry, looked up, the tested form may be a part, canonical isoform): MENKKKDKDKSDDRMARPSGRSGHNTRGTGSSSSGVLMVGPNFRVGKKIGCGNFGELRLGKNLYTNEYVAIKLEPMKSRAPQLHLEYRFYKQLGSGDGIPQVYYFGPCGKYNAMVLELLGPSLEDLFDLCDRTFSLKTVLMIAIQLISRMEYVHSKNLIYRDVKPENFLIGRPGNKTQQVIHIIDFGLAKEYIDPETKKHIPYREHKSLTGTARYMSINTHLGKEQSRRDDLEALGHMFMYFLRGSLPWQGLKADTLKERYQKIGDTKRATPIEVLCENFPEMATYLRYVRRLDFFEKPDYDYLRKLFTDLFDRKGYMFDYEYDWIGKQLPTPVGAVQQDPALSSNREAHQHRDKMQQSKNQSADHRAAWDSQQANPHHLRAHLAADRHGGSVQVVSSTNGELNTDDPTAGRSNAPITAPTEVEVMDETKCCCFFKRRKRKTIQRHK

Compound: CC1(C)[C@H](Nc2c(C(N)=O)cnn3cc(-c4ccccc4)cc23)CC[C@]1(C)N
- Activity [1]: 3%
- Activity [2]: 36%
- Activity [3]: 48%
- Activity [4]: 61%
- Activity [5]: 67%
- Activity [6]: 67%
- Activity [7]: 68%
- Activity [8]: 71%
- Activity [9]: 72%
- Activity [10]: 75%
- Activity [11]: 80%
- Activity [12]: 84%
- Activity [13]: 87%
- Activity [14]: 89%
- Activity [15]: 90%
- Activity [16]: 90%
- Activity [17]: 91%
- Activity [18]: 92%
- Activity [19]: 92%
- Activity [20]: 93%
- Activity [21]: 100%
- Activity [22]: 100%
- Activity [23]: 100%
- Activity [24]: 100%
- Activity [25]: 100%

Compound: COc1ccc(-c2cc3c(N[C@@H]4CC[C@](C)(N)C4(C)C)c(C(N)=O)cnn3c2)cn1
- Activity [1]: 27%
- Activity [2]: 63%
- Activity [3]: 73%
- Activity [4]: 80%
- Activity [5]: 99%
- Activity [6]: 100%
- Activity [7]: 86%
- Activity [8]: 92%
- Activity [9]: 93%
- Activity [10]: 100%
- Activity [11]: 62%
- Activity [12]: 100%
- Activity [13]: 100%
- Activity [14]: 94%
- Activity [15]: 100%
- Activity [16]: 97%
- Activity [17]: 90%
- Activity [18]: 87%
- Activity [19]: 100%
- Activity [20]: 90%
- Activity [21]: 96%
- Activity [22]: 100%
- Activity [23]: 100%
- Activity [24]: 100%
- Activity [25]: 84%
